{
  "source": "paper PMC8282797",
  "about": "“Strictly regulated agonist-dependent activation of AMPA-R is the key characteristic of TAK-653 for robust synaptic responses and cognitive improvement” (Scientific Reports, 2021)",
  "key": {"lipoxygenase 5-LO": {"molecular_target": "T1, lipoxygenase 5-LO (Homo sapiens, UniProt P09917)", "T1 construct": "Ricerca, Taipei, Taiwan", "T1 sequence (P09917 1-674)": "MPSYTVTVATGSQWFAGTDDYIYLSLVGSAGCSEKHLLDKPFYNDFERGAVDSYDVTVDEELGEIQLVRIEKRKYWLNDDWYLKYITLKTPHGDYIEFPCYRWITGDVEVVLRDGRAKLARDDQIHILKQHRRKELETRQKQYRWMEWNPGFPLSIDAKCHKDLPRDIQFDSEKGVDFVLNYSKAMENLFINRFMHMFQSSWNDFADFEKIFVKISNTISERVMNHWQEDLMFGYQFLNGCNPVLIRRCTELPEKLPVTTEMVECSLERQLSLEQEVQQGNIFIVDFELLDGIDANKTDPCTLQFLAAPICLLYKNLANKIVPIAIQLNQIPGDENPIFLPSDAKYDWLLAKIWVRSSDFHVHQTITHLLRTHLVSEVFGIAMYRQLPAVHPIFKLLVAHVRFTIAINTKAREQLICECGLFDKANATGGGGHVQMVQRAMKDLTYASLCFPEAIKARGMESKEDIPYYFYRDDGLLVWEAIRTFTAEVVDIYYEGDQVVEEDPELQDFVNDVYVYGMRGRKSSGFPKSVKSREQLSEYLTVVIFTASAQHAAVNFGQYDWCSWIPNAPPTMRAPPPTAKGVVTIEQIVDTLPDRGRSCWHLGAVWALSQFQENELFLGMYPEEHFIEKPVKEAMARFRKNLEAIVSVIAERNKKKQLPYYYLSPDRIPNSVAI", "experiment": "Lipoxygenase 5-LO enzyme activity", "type": "biochemical"}, "GluA1i S743A": {"molecular_target": "T2, GluA1i S743A (Homo sapiens, UniProt P42261, S743A)", "T2 construct": "expressed in transfected cells; host or cells: CHO cells, transient electroporation", "T2 sequence (P42261 19-906 isoform P42261-2 S743A limits assumed)": "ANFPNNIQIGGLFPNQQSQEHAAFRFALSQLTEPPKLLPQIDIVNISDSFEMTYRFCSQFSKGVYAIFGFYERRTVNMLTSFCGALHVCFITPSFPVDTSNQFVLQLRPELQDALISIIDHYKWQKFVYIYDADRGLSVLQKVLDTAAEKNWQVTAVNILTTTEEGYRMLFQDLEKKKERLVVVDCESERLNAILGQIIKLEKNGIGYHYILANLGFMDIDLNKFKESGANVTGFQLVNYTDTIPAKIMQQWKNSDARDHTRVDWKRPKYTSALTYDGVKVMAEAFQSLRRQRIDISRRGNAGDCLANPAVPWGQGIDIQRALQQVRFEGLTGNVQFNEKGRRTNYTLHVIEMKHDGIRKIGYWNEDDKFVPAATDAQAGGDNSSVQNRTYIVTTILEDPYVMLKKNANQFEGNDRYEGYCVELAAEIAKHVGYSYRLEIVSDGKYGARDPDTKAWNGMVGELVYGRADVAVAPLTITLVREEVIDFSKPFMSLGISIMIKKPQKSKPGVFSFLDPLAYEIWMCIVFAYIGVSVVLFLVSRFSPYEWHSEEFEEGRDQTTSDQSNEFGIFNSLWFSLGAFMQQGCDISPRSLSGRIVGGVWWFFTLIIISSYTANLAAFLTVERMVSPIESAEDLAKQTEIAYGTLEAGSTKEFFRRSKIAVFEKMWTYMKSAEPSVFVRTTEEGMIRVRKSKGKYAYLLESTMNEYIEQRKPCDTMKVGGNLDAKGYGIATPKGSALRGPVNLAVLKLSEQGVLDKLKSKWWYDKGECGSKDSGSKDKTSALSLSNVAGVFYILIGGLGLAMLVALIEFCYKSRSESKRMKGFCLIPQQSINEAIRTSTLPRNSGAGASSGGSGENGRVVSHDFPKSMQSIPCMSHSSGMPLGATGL", "T2 sequence (Q9Y698 whole entry partner)": "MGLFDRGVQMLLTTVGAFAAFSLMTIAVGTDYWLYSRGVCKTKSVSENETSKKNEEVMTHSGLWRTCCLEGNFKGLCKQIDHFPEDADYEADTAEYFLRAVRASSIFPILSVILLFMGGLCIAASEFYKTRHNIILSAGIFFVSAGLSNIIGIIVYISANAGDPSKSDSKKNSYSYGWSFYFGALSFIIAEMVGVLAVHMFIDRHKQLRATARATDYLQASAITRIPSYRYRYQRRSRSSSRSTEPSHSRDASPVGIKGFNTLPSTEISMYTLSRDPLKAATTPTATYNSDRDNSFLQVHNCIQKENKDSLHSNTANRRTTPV", "experiment": "Ca2+ influx assay in CHO cells expressing GluA1i S743A", "type": "cell-based", "conditions": "at each concentration of glutamate tested (0, 0.3 μM, 1 μM, 3 mM)", "experimental": "Ca^2+ influx assays using human GluA1/flip and human stargazin co-expressing CHO cells plated at 3 × 10^4 cells/well in 96-well Black Clear plates (Corning Incorporated, Corning, NY) were performed as previously described, with some modifications. For evaluation of the species difference, rat GluA1/flip expressing CHO cells were plated. For mutant channels, the human GluA1i S743A mutant was generated using the In-Fusion HD Cloning Kit (Takara Bio Inc., Kusatsu, Japan) according to the manufacturer's protocol and transiently introduced to CHO cells by Gene Pulser II Electroporation System (Bio-Rad Laboratories, Inc., Hercules, CA). Relative increases of intracellular Ca^2+ levels were monitored for 3 min with a fluorometric imaging plate reader (CellLux, Perkin Elmer Life and Analytical Sciences, Inc., Shelton, CT). […]\nHuman GluA1/flip and human stargazin co-expressing CHO cells were plated at 3×10^4 cells/well in 96-well Black Clear plate (Corning Incorporated, Corning, NY). […] Relative increases of intracellular Ca^2+ levels by compounds in the presence and absence of 3 mM L-glutamate were monitored for 3 min by fluorometric imaging plate reader (CellLux, Perkin Elmer Life and Analytical Sciences, Inc., Shelton, CT). Activity of compound was defined as integration value of fluorescence value of each detection point. […] EC50 values were calculated by logistic regression analysis."}, "BDNF protein levels": {"system": "BDNF protein levels", "experiment": "BDNF production in primary neurons", "type": "cell-based, rat", "conditions": "24 h", "experimental": "BDNF production in primary neurons was measured as previously described. Primary cultures of hippocampal neuronal cells at a density of 5 × 10^4 cells/well plated on poly-L-lysine coated 96-well plates (Sumitomo Bakelite) were treated with compounds in the presence or absence of AMPA (1 μM) and cultured in a humidified CO2 incubator with 5% CO2 at 37 °C for 24 h. The cells were washed once using phosphate buffered saline and were collected using 60 μL of lysis buffer (20 mM Tris-HCl at pH 8.0, 137 mM NaCl, 10% glycerol, 1% NP-40, 1% protease inhibitor cocktail [Sigma-Aldrich, St. Louis, MO]). Concentrations of BDNF protein were measured using BDNF ELISA Kits (Promega, Fitchburg, WI).\nPrimary cultures of hippocampal neuronal cells were prepared from fetal Sprague-Dawley rats at 19 days of gestation. Rat embryos were decapitated and their whole brains were isolated. Hippocampi were dissected in ice-cold Hanks' Balanced Salt Solutions (HBSS) under a microscope and then dispersed into cells using a neural cell dispersion kit (Sumitomo Bakelite Co., Ltd., Tokyo, Japan). The dissociated cells were suspended in Neurobasal medium containing B27 supplement (Thermo Fisher Scientific Inc.), 2 mM L-glutamine (Lonza, Basel, Switzerland), 100 U/mL penicillin (Lonza), 100 μg/mL streptomycin (Lonza) and 20 μg/mL gentamicin sulfate (Lonza). […]"}},
  "data": [
    {"smiles": "CC1=CN2CCS(=O)(=O)N=C2C(c2ccc(OC3CCCCC3)cc2)=N1", "note": "[TAK-653, 9-[4-(Cyclohexyloxy)phenyl]-7-methyl-3,4-dihydropyrazino[2,1-c][1,2,4]thiadiazine 2,2-dioxide]", "values": [
      {"measurement": "IC50", "setting": "lipoxygenase 5-LO", "value": 5.9, "unit": "µM"},
      {"measurement": "Maximum responses in S743A GluA1i versus wild-type GluA1i CHO cells", "setting": "GluA1i S743A", "value": "higher"},
      {"measurement": "BDNF protein levels", "setting": "BDNF protein levels; compound alone at 1 μM", "value": "slightly increased"},
      {"measurement": "BDNF protein levels", "setting": "BDNF protein levels; in the presence of AMPA (1 μM)", "value": "robustly increased"}
    ]}
  ]
}
